Reference: US20260083701A1, “COMPOSITIONS, FORMULATIONS, AND METHODS FOR TREATMENT OF INFLAMMATORY CONDITIONS” (Oddity Labs, LLC, priority 2023, published 2026)

Tests used:
IL-13 = assay: Functional Th2-blocking activity: IL-13 expression in primary human Th2 cells (intracellular flow cytometry); type: cell-based; settings: for Expression of Cytokine following Stimulation (% X Positive among CD4+ T cells) IL-13: 3 days co-culture with compound, PMA/ionomycin stimulation 6 hours; for % Normalized Reduction of Cytokine Expression From Baseline in CD4+ T Cells IL-13: normalized against vehicle control (water), 3 days co-culture, PMA/ionomycin 6 hours
Source text: (§1) To produce T helper 2 (Th2) cells, peripheral blood mononuclear cells (PBMCs) were harvested from healthy donor leukopaks using Ficoll gradients. Naive CD4+ T cells were further isolated, then activated using TransAct or Dynabeads (depending on the donor). CD4+ T cells were activated for two days in the presence of low dose IL-2 (30 IU/mL) in X-VIVO-15 media containing 5% human AB serum (activation cycle). On the second day, the media was exchanged and supplemented with interleukin 4 (IL-4) (20 ng/mL), anti-IFN-gamma antibody (1 μg/mL), and interleukin 2 (IL-2) (rest cycle). The cells were cultured for an additional five days then evaluated for Prostaglandin D2 receptor 2 (DP2 or CRTH2) expression and IL-4 and interleukin 13 (IL-13) expression following phorbol myristate acetate (PMA)/ionomycin stimulation. If the expression of CRTH2 was >50%, the cells were frozen and used in Th2 IL-4/IL-13 bioactivity assays. If the expression of CRTH2 <50%, then the cells were restimulated using TransAct (or Dynabeads) and maintained on similar cycles of activation (2 days) and rest (5 days), until the expression of CRTH2 exceeded 50%. Typically, no more than 4 cycles are needed before the Th2 cells may be harvested and frozen.
(§2) For testing the ability of a compound or salt of the present disclosure to reduce the expression of IL-4 and IL-13 was tested in primary human Th2 cells, the abovementioned cells were thawed, then cultured for one day in IL-2 containing media. The Th2 cells were treated with compounds added at varying concentrations for three days, after which, the cells were washed, and stimulated with PMA/ionomycin for 6 hrs prior to readabout via intracellular flow cytometry.
(§3) The ability of a compound or salt of the present disclosure to reduce the expression of IL-4 and IL-13 was tested in primary human Th2 cells. Naive, primary human CD4+ T cells were isolated from healthy donors and differentiated into Th2 cells using a combination of IL-4 cytokine and anti-IFN-gamma antibody, based on a modified protocol from Scott et al (Activation of Th2 cells downregulates CRTh2 through an NFAT1 mediated mechanism. PLoS One. 2018 Jul. 3; 13(7):e0199156). Th2 cells were CRTH2+ and expressed IL-4 and IL-13 following PMA/ionomycin stimulation. Prior to PMA/ionomycin stimulation, Th2 cells were co-cultured with a compound or salt of the present disclosure for 3 days and then stimulated for 6 hours. Intracellular flow cytometry was performed to investigate the expression of IL-4 and IL-13 among stimulated CD4+ Th2 cells. The compound or salt was evaluated across a 2-log concentration range. Th2 cells were cultured in X-VIVO-15 media with human AB serum and supplemented with low dose IL-2 (30 IU/mL). The antibody panel that was used is listed below. All antibodies were obtained from Biolegend.
(§4) Description of Calculation for: (1) Expression of Cytokine following Stimulation (% X Positive among CD4+ T cells), and (2) % Normalized Reduction of Cytokine Expression From Baseline in CD4+ T Cells
(§5) The expression of IL-4 and IL-13 was measured based on positive gated fractions among CD4+ Th2 cells. The number is expressed as a positive percentage, determined based on the fluorescence-minus-one (FMO) control. The max percent is 100%. The normalized reduction value uses the vehicle control (water) to normalize against using the following percent change formula. (Cmpd: compound)

IL-4 receptor signaling = assay: IL-4 signaling inhibition in HEK-Blue IL-4/IL-13 cells; type: cell-based, human; settings: HEK-Blue IL-4/IL-13 cells stimulated with 1.25 ng/mL IL-4, co-culture with varying concentrations for 24 hours
Protocol: HEK-Blue IL-4/IL-13 cells are used to evaluate IL-4/IL-4R-alpha binding. HEK-Blue IL-4/IL-13 have been engineered to produce secreted alkaline phosphatase (SEAP) when exposed to IL-4 or IL-13 and have been previously used to identify IL-4 and IL-4R inhibitors. Compounds are tested with these cells at various dosages to evaluate dose dependent changes in IL-4/IL-4R-alpha binding inhibition. Full EC50 curves are generated for Tier1 compounds.
In the experiment, engineered HEK-Blue™ IL-4/IL-13 cells were stimulated with a dose of 1.25 ng/mL of IL-4 and then subjected to co-culture with varying concentrations of the compounds for a period of 24 hours. […] The provided data represent the mean±standard deviation of six technical replicates carried out across two experimental replicates.

IL-4 = assay: Functional Th2-blocking activity: IL-4 expression in primary human Th2 cells (intracellular flow cytometry); type: cell-based; settings: primary human CD4+ Th2 cells; for % Normalized Reduction of Cytokine Expression From Baseline in CD4+ T Cells IL-4: normalized against vehicle control (water), 3 days co-culture, PMA/ionomycin 6 hours; for Expression of Cytokine following Stimulation (% X Positive among CD4+ T cells) IL-4: 3 days co-culture with compound, PMA/ionomycin stimulation 6 hours
Source text: as §1, §2, §3, §4, §5

| Compound | Expression of Cytokine following Stimulation (% X Positive among CD4+ T cells) IL-13 (IL-13) | % Normalized Reduction of Cytokine Expression From Baseline in CD4+ T Cells IL-13 (IL-13) | IL-4 signaling inhibition (IL-4 receptor signaling) | % Normalized Reduction of Cytokine Expression From Baseline in CD4+ T Cells IL-4 (IL-4) | Expression of Cytokine following Stimulation (% X Positive among CD4+ T cells) IL-4 (IL-4) |
| --- | --- | --- | --- | --- | --- |
| Nc1c(C(=O)Nc2ccc(Cl)c(Cl)c2)c2ccccn2c1C(=O)c1cccc([N+](=O)[O-])c1 [Compound I-3, 2-amino-N-(3,4-dichlorophenyl)-3-(3-nitrobenzoyl)indolizine-1-carboxamide] | C (C represents 14% to less than 18%) | C (C represents 40% to less than 50%) | prominent IL-4 signaling inhibition | B (B represents 15% to less than 20%) | B (B represents 30% to less than 35%) |
| CN1c2c(nc(N)[nH]c2=O)NCC1CNc1ccc(C(=O)NC(CCC(=O)O)C(=O)O)cc1.[Ca+2] (stereo not shown) [VI-4, Levomefolate calcium, reference compound] | C (C represents 14% to less than 18%) | B (B represents 30% to less than 40%) | – | B (B represents 15% to less than 20%) | B (B represents 30% to less than 35%) |
| Cc1ccc(C)n1-c1ccsc1C(=O)NC1CCCC1 [VI-5, N-cyclopenty1-3-(2,5-dimethy1-1H-pyrrol-1-yl)thiophene-2-carboxamide] | C (C represents 14% to less than 18%) | B (B represents 30% to less than 40%) | – | B (B represents 15% to less than 20%) | B (B represents 30% to less than 35%) |
| Cn1nc(C(=O)NC(CCC(=O)O)C(=O)O)c2ccccc2c1=O (stereo not shown) [VI-6, 2-[(3-methyl-4-oxo-3,4-dihydrophthalazin-1-yl)formamido]pentanedioic acid] | C (C represents 14% to less than 18%) | B (B represents 30% to less than 40%) | – | A (A represents 0% to less than 15%) | C (C represents 35% to less than 40%) |
| CC1=NN(c2cccc(Cl)c2)C(=O)/C1=C\Nc1cccc2c1C(=O)c1ccccc1C2=O [VI-7, 1-({[1-(3-chlorophenyl)-3-methyl-5-oxo-1,5-dihydro-4H-pyrazol-4-ylidene]methyl}amino)anthra-9,10-quinone] | C (C represents 14% to less than 18%) | B (B represents 30% to less than 40%) | – | D (D represents 25% or greater) | B (B represents 30% to less than 35%) |
| Cc1ccc(C)n1-c1ccsc1C(=O)N1CCOC(c2ccccc2)C1 (stereo not shown) [VI-8, 4-[3-(2,5-dimethyl-1H-pyrrol-1-yl)thiophene-2-carbonyl]-2-phenylmorpholine] | C (C represents 14% to less than 18%) | C (C represents 40% to less than 50%) | – | A (A represents 0% to less than 15%) | C (C represents 35% to less than 40%) |
| O=C(c1ccc(F)cc1F)C1(O)CCN(Cc2ccc3cnccc3c2)CC1 [VI-9, 4-(2,4-difluorobenzoyl)-1-[(isoquinolin-6-yl)methyl]piperidin-4-ol] | C (C represents 14% to less than 18%) | C (C represents 40% to less than 50%) | – | D (D represents 25% or greater) | A (A represents 0% to less than 30%) |
| Cc1ccc(CCNC(=O)c2ccc3c(=O)n(-c4ccc(C)cc4)c(=O)[nH]c3c2)cc1 [VI-10, 3-(4-methylpheny1)-N-[2-(4-methylphenyl)ethyl]-2,4-dioxo-1,2,3,4-tetrahydroquinazoline-7-carboxamide] | C (C represents 14% to less than 18%) | B (B represents 30% to less than 40%) | – | C (C represents 20% to less than 25%) | B (B represents 30% to less than 35%) |
| O=C(N/N=C/c1cccc(OCc2ccccc2)c1)c1cc2ccccc2cc1O [VI-11, N′-[3-(benzyloxy)benzylidene]-3-hydroxy-2-naphthohydrazide] | D (D represents 18% or greater) | A (A represents 0% to less than 30%) | – | A (A represents 0% to less than 15%) | D (D represents 40% or greater) |
| COc1ccc(-c2cc(=O)c3c(O)cc(O[C@@H]4O[C@H](CO)[C@@H](O)[C@H](O)[C@H]4O)cc3o2)cc1O [VI-12, Diosmetin-7-O-beta-D-glucopyranoside] | A (A represents 0% to less than 10%) | D (D represents 50% or greater) | – | D (D represents 25% or greater) | A (A represents 0% to less than 30%) |
| O=C(Oc1ccc(OC(=O)c2ccc3c(c2)C(=O)OC3=O)cc1)c1ccc2c(c1)C(=O)OC2=O [VI-13, 4-(1,3-dioxo-1,3-dihydro-2-benzofuran-5-carbonyloxy)phenyl 1,3-dioxo-1,3-dihydro-2-benzofuran-5-carboxylate] | C (C represents 14% to less than 18%) | B (B represents 30% to less than 40%) | – | C (C represents 20% to less than 25%) | B (B represents 30% to less than 35%) |
| O=C1Cc2cc(-c3csc(Cc4ccc(F)cc4)n3)cc3c2N1CCC3 [VI-14, 8-(2-(4-fluorobenzyl)thiazol-4-yl)-5,6-dihydro-4H-pyrrolo[3,2,1-ij]quinolin-2(1H)-one] | B (B represents 10% to less than 14%) | D (D represents 50% or greater) | – | C (C represents 20% to less than 25%) | B (B represents 30% to less than 35%) |
